In US11208412B2 (DAEGU-GYEONGBUK MEDICAL INNOVATION FOUNDATION, priority 2017, dated 2021):

Experiments:
Assay in all cases: Kinase selectivity, DiscoverX scanMAX Kinase assay panel (% control)
Format in all cases: binding
[1] = target: T1, kinases of the scanMAX Kinase assay panel (Homo sapiens, UniProt P78356); conditions: PIP5K2B; 1 uM
T1 construct: purchased DiscoverX Co. (contract measurement) scanMAX Kinase assay panel
T1 sequence (P78356 1-416): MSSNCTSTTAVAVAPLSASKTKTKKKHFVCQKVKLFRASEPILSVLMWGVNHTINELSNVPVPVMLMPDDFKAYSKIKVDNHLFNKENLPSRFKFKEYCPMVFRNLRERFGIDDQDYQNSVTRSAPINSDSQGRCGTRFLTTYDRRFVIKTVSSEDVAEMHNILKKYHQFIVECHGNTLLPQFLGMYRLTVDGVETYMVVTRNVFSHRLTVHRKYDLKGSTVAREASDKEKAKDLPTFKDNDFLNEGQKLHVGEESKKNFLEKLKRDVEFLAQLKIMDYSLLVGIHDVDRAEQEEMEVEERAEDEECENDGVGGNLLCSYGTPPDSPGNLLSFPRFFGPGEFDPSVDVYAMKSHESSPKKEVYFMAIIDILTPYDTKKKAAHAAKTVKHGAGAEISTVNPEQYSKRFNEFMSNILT
In short: (§1)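 Binding-panel profiling at one concentration, 1 uM in DMSO; values are % of DMSO control after subtracting the positive-control floor. Less than 35% means activity on that kinase.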

[2] = target: T2, kinases of the scanMAX Kinase assay panel (Homo sapiens, UniProt Q8TDX7); conditions: NEK7; 1 uM
T2 construct: purchased DiscoverX Co. (contract measurement) scanMAX Kinase assay panel
In short: as §1

[3] = target: T3, kinases of the scanMAX Kinase assay panel (Homo sapiens, UniProt Q86YV6); conditions: MYLK4; 1 uM
T3 construct: purchased DiscoverX Co. (contract measurement) scanMAX Kinase assay panel
T3 sequence (Q86YV6 1-388): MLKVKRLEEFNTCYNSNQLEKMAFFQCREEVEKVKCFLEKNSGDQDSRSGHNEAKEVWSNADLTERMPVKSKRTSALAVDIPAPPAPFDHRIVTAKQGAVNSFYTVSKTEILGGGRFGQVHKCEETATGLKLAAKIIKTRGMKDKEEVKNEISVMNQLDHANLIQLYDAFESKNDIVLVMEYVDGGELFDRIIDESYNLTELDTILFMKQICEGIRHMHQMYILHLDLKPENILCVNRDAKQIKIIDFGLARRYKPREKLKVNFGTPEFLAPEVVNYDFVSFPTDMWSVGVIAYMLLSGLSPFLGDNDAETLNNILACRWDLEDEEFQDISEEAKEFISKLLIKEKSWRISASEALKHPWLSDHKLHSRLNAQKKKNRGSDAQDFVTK
In short: as §1

[4] = target: T4, kinases of the scanMAX Kinase assay panel (Homo sapiens, UniProt Q9P2K8, S808G); conditions: GCN2(Kin.Dom.2, S808G); 1 uM
T4 construct: purchased DiscoverX Co. (contract measurement) scanMAX Kinase assay panel
In short: as §1

[5] = target: T5, kinases of the scanMAX Kinase assay panel (Homo sapiens, UniProt O15111); conditions: IKK-alpha; 1 uM
T5 construct: purchased DiscoverX Co. (contract measurement) scanMAX Kinase assay panel
T5 sequence (O15111 1-745): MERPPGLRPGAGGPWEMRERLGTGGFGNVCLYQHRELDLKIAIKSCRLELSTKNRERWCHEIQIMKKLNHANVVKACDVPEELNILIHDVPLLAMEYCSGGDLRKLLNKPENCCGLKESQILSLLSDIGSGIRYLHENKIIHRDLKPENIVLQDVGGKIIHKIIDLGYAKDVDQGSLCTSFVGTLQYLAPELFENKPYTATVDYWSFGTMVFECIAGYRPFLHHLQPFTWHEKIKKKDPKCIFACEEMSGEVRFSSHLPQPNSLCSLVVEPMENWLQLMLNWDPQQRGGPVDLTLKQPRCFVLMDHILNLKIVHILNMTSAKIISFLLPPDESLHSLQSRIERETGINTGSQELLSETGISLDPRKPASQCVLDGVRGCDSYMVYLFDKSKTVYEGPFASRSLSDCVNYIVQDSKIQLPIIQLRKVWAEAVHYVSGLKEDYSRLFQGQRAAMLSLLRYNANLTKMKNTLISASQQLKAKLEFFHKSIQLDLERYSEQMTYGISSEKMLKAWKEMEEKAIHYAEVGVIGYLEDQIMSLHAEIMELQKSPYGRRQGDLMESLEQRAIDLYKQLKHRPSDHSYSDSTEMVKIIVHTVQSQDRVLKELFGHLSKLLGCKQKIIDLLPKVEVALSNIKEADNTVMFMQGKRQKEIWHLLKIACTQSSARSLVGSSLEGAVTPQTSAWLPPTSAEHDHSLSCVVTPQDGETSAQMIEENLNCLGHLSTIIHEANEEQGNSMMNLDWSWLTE
In short: as §1

[6] = target: T6, kinases of the scanMAX Kinase assay panel (Homo sapiens, UniProt P10721, V559D/V654A); conditions: KIT(V559D, V654A); 1 uM
T6 construct: purchased DiscoverX Co. (contract measurement) scanMAX Kinase assay panel
In short: as §1

[7] = target: T7, kinases of the scanMAX Kinase assay panel (Homo sapiens, UniProt Q13043); conditions: MST1; 1 uM
T7 construct: purchased DiscoverX Co. (contract measurement) scanMAX Kinase assay panel
T7 sequence (Q13043 1-487): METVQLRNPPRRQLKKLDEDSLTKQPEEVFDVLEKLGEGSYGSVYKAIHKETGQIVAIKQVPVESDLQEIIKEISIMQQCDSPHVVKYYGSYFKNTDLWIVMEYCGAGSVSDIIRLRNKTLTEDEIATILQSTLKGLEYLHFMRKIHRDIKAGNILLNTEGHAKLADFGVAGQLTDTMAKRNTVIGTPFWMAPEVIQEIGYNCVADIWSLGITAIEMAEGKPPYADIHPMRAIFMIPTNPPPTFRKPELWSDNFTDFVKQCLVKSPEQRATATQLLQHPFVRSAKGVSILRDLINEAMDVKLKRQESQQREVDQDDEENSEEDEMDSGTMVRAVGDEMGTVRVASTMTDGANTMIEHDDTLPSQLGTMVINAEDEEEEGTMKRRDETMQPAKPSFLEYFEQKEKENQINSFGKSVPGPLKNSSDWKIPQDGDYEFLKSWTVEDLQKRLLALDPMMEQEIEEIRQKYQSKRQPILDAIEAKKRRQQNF
In short: as §1

[8] = target: T8, kinases of the scanMAX Kinase assay panel (Homo sapiens, UniProt Q8TDR2); conditions: kinase STK35; 1 uM in DMSO
T8 construct: purchased DiscoverX Co. (contract measurement) scanMAX Kinase assay panel
In short: as §1

T8 sequence (Q8TDR2 whole entry): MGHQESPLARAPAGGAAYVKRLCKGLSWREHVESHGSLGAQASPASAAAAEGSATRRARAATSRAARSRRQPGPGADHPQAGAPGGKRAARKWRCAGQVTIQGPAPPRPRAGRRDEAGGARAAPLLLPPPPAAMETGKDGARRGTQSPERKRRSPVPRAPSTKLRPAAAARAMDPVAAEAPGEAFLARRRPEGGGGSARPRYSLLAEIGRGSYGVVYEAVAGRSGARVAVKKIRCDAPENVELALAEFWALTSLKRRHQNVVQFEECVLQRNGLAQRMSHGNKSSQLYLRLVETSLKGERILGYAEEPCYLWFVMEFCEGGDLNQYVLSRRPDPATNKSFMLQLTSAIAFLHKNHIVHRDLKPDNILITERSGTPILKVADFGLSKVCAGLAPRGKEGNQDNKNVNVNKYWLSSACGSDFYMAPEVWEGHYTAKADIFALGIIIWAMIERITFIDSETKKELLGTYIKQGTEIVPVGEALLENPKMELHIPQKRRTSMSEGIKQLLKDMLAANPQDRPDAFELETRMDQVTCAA
T4 sequence (Q9P2K8 whole entry S808G): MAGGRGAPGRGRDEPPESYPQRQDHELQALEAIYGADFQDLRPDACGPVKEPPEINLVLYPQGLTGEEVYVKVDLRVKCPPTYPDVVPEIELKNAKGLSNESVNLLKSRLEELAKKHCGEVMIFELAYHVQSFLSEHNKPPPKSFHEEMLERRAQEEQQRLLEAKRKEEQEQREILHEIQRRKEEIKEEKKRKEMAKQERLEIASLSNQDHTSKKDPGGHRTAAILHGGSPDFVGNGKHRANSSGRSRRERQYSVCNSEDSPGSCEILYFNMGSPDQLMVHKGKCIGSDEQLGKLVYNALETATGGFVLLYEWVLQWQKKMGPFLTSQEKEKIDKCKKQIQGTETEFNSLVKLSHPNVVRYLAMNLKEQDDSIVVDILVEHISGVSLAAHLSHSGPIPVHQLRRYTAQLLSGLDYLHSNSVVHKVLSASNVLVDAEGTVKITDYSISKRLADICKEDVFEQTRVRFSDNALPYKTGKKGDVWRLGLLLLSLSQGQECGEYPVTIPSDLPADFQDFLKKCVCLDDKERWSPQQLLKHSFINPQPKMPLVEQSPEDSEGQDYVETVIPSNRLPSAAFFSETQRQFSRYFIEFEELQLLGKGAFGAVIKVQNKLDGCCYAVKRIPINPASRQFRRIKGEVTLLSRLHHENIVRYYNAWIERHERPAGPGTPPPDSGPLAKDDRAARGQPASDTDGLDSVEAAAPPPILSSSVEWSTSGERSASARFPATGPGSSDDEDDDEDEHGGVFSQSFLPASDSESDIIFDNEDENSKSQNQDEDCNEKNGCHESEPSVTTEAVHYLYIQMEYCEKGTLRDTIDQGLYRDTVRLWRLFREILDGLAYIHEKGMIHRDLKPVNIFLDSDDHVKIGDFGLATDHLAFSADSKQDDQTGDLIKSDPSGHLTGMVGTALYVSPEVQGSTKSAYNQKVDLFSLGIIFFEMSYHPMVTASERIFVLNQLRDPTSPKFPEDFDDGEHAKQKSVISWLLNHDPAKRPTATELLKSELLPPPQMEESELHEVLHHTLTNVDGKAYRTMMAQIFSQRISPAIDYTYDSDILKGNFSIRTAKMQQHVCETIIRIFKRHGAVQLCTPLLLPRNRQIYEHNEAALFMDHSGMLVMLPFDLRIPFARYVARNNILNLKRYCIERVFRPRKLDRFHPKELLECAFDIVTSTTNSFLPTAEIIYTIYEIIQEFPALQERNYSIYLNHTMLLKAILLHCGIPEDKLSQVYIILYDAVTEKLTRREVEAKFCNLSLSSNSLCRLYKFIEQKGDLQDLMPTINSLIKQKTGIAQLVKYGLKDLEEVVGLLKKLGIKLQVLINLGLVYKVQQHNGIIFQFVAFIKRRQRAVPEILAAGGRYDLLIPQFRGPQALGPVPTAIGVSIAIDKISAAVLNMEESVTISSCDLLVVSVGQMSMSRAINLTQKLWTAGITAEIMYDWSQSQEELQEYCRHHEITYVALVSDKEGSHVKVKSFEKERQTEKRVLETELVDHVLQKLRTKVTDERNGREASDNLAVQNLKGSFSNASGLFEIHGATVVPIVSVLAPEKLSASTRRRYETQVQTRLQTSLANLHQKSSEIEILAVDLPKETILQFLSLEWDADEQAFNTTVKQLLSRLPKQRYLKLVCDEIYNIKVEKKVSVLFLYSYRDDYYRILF
T6 sequence (P10721 26-976 V559D/V654A): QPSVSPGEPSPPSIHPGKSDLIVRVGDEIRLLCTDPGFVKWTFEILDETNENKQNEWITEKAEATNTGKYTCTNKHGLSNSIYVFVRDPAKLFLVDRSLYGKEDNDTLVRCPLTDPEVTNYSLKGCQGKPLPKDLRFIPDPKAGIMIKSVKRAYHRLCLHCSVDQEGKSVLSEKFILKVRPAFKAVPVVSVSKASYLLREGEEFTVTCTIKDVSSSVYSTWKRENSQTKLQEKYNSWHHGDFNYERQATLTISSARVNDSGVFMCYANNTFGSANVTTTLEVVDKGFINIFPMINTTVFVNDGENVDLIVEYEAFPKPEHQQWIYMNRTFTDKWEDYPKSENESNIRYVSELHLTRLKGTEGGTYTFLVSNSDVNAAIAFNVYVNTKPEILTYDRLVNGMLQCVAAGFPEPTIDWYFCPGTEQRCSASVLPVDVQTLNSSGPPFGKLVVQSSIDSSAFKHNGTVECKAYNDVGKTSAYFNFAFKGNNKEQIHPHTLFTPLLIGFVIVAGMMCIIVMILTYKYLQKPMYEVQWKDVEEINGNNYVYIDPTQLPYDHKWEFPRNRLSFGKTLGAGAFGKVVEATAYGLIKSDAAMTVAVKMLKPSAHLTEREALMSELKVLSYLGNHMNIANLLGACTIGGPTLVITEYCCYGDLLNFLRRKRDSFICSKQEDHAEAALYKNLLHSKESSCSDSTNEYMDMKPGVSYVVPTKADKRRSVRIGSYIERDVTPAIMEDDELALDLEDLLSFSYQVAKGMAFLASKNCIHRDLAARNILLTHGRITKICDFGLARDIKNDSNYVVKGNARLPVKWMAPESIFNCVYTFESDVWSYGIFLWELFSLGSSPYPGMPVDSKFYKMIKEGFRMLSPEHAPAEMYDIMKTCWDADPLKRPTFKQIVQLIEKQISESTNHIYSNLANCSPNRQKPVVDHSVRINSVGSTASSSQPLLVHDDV
T2 sequence (Q8TDX7 whole entry): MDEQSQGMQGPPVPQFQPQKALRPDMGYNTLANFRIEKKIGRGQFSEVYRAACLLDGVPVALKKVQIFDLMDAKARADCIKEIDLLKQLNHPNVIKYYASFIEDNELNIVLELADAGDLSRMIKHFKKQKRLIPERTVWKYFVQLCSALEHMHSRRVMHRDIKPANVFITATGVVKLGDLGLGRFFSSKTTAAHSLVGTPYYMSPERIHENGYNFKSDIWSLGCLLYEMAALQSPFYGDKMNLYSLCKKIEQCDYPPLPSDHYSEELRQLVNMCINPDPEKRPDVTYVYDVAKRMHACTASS

For `CNc1nc(Nc2ccc(C(=O)N3CCOCC3)cc2OC)nc2[nH]cc(C#N)c12` [Example 1, 2-((2-methoxy-4-(morpholine-4-carbonyl)phenyl)amino)-4-(methylamino)-7H-pyrrolo[2,3-d]pyrimidine-5-carbonitrile], the remaining binding at 1 µM [1] was 100%, the remaining binding at 1 µM [2] was 100% and the remaining binding at 1 µM [3] was 90%. For the same molecule, the remaining binding at 1 µM [4] was 93%, the remaining binding at 1 µM [5] was 57% and the remaining binding at 1 µM [6] was 76%. It also gave a remaining binding at 1 µM [7] of 93% and a remaining binding at 1 µM [8] of 100%.
For `CC1(Nc2nc(Nc3cnn([C@H]4CCN(C5COC5)C[C@@H]4F)c3Cl)nc3[nH]cc(C#N)c23)CC1` [Example 52, 2-((5-chloro-1-((3S,4S)-3-fluoro-1-(oxetane-3-yl)piperidine-4-yl)-1H-pyrazole-4-yl)amino)((1-methylcyclopropyl)amino)-7H-pyrrolo[2,3-d]pyrimidine-5-carbonitrile], the remaining binding at 1 µM [1] was 0.45%, the remaining binding at 1 µM [2] was 97% and the remaining binding at 1 µM [3] was 82%. For the same molecule, the remaining binding at 1 µM [4] was 33%, the remaining binding at 1 µM [5] was 3.4% and the remaining binding at 1 µM [6] was 0.9%. It also gave a remaining binding at 1 µM [7] of 17% and a remaining binding at 1 µM [8] of 14%.
Work on `CCNc1nc(Nc2ccc(C(=O)N3CCC(N4CCOCC4)CC3)cc2OC)nc2[nH]cc(C(F)(F)F)c12` [Example 104, (4-((4-(ethylamino)-5-(trifluoromethyl)-7H-pyrrolo[2,3-d]pyrimidine-2-yl)amino)-3-methoxyphenyl)(4-morpholinopiperidine-1-yl)methanone] yielded a remaining binding at 1 µM [1] of 100%, a remaining binding at 1 µM [2] of 94% and a remaining binding at 1 µM [3] of 89%. It also gave a remaining binding at 1 µM [4] of 64%, a remaining binding at 1 µM [5] of 93% and a remaining binding at 1 µM [6] of 94%. The remaining binding at 1 µM [7] was 100% and the remaining binding at 1 µM [8] was 100%.
